Source: patent publication US6547971B2 (priority 2000, dated 2003)
Where “and” joins values, the source holds several entries; their conditions need not be identical. Equal values may be shown once.

System: spores of Bacillus cereus
Type: cell-based

In the case of `C[C@H](N)C(=O)O` [L-alanine], the CFU is reported as 72 and 85 and the “induction of spore germination” value (control samples A and B) is reported as “did induce germination”.
